According to paper PMC7111485 (Bioorganic & Medicinal Chemistry, 2016):

Legend:
[1] = tested on: HeLa cells; details: for cell death ratio: human
[2] = target: Bovine spleen cathepsin B (Bos taurus, UniProt P07688); format: biochemical

Row | Structure (SMILES) | cell death ratio [1] | further results
1 | O=C(/C=C/c1ccccc1)N[C@H](COC(=O)c1ccccc1)C(=O)NC1CCCCC1 (single isomer, unassigned) [ent-3] | – | cytotoxicity (in words) [1]: no cytotoxicity; Inhibition (%) [2]: no inhibition
2 | COc1ccccc1/C=C/C(=O)N[C@@H](COC(=O)c1ccccc1)C(=O)NC1CCCCC1 [7f, (S)-N-(E)-2′-Methoxy-3-phenylprop-2-enoicserine(benzoyl)cyclohexylamide] | – | inhibitory activity relative to 3 (times) [2]: about 10 times; inhibitory mechanism (Lineweaver–Burk plot) [2]: competitive inhibition
3 | COc1cc(/C=C/C(=O)N[C@@H](COC(=O)c2ccccc2)C(=O)NC2CCCCC2)cc(OC)c1 [7h, (S)-N-(E)-3′,5′-Dimethoxy-3-phenylprop-2-enoicserine(benzoyl)cyclohexylamide] | less than 20% | –
4 | COc1cccc(/C=C/C(=O)N[C@@H](COC(=O)c2ccccc2)C(=O)NC2CCCCC2)c1 [7i, (S)-N-(E)-3′-Methoxy-3-phenylprop-2-enoicserine(benzoyl)cyclohexylamide] | less than 20% | –
5 | O=C(/C=C/c1ccc(OC(=O)c2ccccc2)cc1)N[C@@H](COC(=O)c1ccccc1)C(=O)NC1CCCCC1 [7j, (S)-N-(E)-4′-Benzoyloxy-3-phenylprop-2-enoicserine(benzoyl)cyclohexylamine] | less than 20% | –
6 | COc1cc(/C=C/C(=O)N[C@@H](COC(=O)c2ccccc2)C(=O)NC2CCCCC2)cc(OC)c1OC [7k, (S)-N-(E)-3′,4′,5′-Trimethoxy-3-phenylprop-2-enoicserine(benzoyl)cyclohexylamide] | less than 20% | –
7 | O=C(/C=C/c1ccccc1)N[C@@H](COC(=O)c1ccccc1)C(=O)NC1CCCCC1 [compound 3, (S)-N-Cinnamoyl serine(benzoyl)cyclohexylamide] | less than 20% | –
8 | COc1cc(/C=C/C(=O)N[C@H](COC(=O)c2ccccc2)C(=O)NC2CCCCC2)cc(OC)c1OC [ent-7k] | – | cytotoxicity (in words) [1]: no cytotoxicity
